From US7261876B2, “Multivalent constructs for therapeutic and diagnostic applications” (Bracco International BV, priority 2002, dated 2007)
Where two headings read alike, the source gives them in different places. Positions of bridges follow the written chain, without caps; N, C: chain ends. Non-standard residues stand in square brackets, D forms with d. Residues, ends and D or L forms follow the SMILES beside them. Lys(ivDde) = CC(C)CC(NCCCC[C@H](N)C(=O)O)=C1C(=O)CC(C)(C)CC1=O

Biological target: T1, KDR (Homo sapiens, UniProt P35968)
T1 construct: host or cells: HUVEC
Assay: VEGF-induced KDR receptor activation (phosphorylation) assay in HUVECs
Format: cell-based
Conditions: for inhibition at 10 µM: HUVEC, read-out: inhibition of VEGF-induced KDR phosphorylation
Description: Human umbilical vein endothelial cells (HUVECs) (Biowhittaker Cat No. CC-2519) were obtained frozen on dry ice and stored in liquid nitrogen until thawing. These cells were thawed, passaged, and maintained as described by the manufacturer in EGM-MV medium (Biowhittaker Cat No. CC-3125). Cells seeded into 100 mm dishes were allowed to become confluent, then cultured overnight in basal EBM medium lacking serum (Biowhittaker Cat No. CC-3121). The next morning, the medium in the dishes was replaced with 10 mL fresh EBM medium at 37° C. containing either no additive (negative control), 5 ng/mL VEGF (Calbiochem Cat No. 676472 or Peprotech Cat No. 100-20) (positive control), or 5 ng/mL VEGF plus the indicated concentration of the KDR-binding peptide (prepared as described above). In some cases, a neutralizing anti-KDR antibody (Cat No. AF357, R&D Systems) was used as a positive control inhibitor of activation. In such cases, the antibody was pre-incubated with the test cells for 30 min at 37° C. prior to the addition of fresh medium containing both VEGF and the antibody. After incubating the dishes 5 min in a 37° C. tissue culture incubator they were washed three times with ice-cold Dulbecco's phosphate buffered saline (D-PBS) containing calcium and magnesium and placed on ice without removing the last 10 mL of D-PBS. The first dish of a set was drained and 0.5 mL of Triton lysis buffer was added (20 mM Tris base pH 8.0, 137 mM NaCl, 10% glycerol, 1% Triton X-100, 2 mM EDTA (ethylenediaminetetraacetic acid), 1 mM PMSF (phenylmethylsulfonylfluoride), 1 mM sodium orthovanadate, 100 mM NaF, 50 mM sodium pyrophosphate, 10 μg/mL leupeptin, 10 μg/mL aprotinin). The cells were quickly scraped into the lysis buffer using a cell scraper (Falcon, Cat No. 353087), dispersed by pipeting up and down briefly, and the resulting lysate was transferred to the second drained dish of the pair. Another 0.5 mL of lysis buffer was used to rinse out the first dish then transferred to the second dish, which was then also scraped and dispersed. The pooled lysate from the two dishes was transferred to a 1.5 mL Eppindorf tube. The above procedure was repeated for each of the controls and test samples (KDR-binding peptides), one at a time. The lysates were stored on ice until all the samples had been processed. At this point samples were either stored at −70° C. or processed to the end of the assay without interruption.
The lysates, either freshly prepared or frozen and thawed, were precleared by adding 20 μL of protein A-sepharose beads (Sigma 3391, preswollen in D-PBS), washed three times with a large excess of D-PBS, reconstituted with 6 mL D-PBS to generate a 50% slurry) and rocked at 4° C. for 30 min. The beads were pelleted by centrifugation for 2 min in a Picofuge (Stratgene, Cat No. 400550) at 2000×g and the supernatants transferred to new 1.5 mL tubes. 20 μg of anti-Flk-1 antibody (Santa Cruz Biotechnology, Cat No. sc-504) was added to each tube, and the tubes were incubated overnight (16–18 h) at 4° C. on a rotator to immunoprecipitate KDR. The next day 40 μL of protein A-sepharose beads were added to the tubes, which were then incubated at 4° C. for 1 h on a rotator. The beads in each tube were subsequently washed three times by centrifuging for 2 min in a Picofuge, discarding the supernatant, and dispersing the beads in 1 mL freshly added TBST buffer (20 mM Tris base pH 7.5, 137 mM NaCl, and 0.1% Tween 20). After centrifuging and removing the liquid from the last wash, 40 μL of Laemmli SDS-PAGE sample buffer (Bio-Rad, Cat No. 161-0737) was added to each tube and the tubes were capped and boiled for 5 min. After cooling, the beads in each tube were pelleted by centrifuging and the supernatants containing the immunoprecipitated KDR were transferred to new tubes and used immediately or frozen and stored at −70° C. for later analysis.
Detection of phosphorylated KDR as well as total KDR in the immunoprecipitates was carried out by immunoblot analysis. […]

T1 sequence (P35968 20-1356): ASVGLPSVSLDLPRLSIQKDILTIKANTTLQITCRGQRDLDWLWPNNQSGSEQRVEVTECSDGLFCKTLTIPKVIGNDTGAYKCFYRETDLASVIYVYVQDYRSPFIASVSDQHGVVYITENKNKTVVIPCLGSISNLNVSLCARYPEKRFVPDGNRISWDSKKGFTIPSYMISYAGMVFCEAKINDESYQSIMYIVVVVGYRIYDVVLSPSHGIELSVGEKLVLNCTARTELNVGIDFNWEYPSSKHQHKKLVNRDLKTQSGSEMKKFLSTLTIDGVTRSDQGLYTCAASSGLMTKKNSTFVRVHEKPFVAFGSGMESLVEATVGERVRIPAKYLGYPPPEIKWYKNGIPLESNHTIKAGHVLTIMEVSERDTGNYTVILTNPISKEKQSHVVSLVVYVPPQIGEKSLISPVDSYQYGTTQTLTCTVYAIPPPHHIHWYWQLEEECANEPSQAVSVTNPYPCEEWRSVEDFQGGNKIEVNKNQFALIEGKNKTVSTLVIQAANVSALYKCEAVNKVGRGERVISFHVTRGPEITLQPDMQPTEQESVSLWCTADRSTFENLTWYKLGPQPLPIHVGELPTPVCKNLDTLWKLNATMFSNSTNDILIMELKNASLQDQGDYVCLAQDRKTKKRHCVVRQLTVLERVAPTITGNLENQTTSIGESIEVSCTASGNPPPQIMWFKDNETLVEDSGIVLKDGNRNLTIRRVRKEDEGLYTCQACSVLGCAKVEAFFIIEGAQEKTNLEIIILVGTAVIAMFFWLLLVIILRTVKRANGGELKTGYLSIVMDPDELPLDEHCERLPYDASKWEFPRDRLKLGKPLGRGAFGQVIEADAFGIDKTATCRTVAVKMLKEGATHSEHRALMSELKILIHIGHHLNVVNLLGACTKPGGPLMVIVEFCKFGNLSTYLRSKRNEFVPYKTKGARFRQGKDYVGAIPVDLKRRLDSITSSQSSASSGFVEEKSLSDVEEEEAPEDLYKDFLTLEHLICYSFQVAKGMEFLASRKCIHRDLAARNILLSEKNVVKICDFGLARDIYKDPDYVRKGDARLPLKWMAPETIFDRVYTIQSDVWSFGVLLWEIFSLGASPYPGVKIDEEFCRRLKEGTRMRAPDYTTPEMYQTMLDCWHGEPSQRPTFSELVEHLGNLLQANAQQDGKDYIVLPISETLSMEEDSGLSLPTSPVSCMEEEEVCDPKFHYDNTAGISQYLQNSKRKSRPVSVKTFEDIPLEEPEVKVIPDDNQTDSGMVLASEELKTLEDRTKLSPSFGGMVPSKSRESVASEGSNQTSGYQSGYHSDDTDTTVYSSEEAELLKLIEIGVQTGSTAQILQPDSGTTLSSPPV

| SMILES | inhibition of KDR activation (10 μM) | further results |
| --- | --- | --- |
| CC[C@H](C)[C@@H]1NC(=O)CNC(=O)[C@H](CC(=O)O)NC(=O)[C@@H]2CCCN2C(=O)[C@H](Cc2c[nH]cn2)NC(=O)[C@H](Cc2ccc(O)cc2)NC(=O)[C@@H](NC(=O)[C@H](CCC(=O)O)NC(=O)[C@@H](NC(=O)[C@H](Cc2c[nH]c3ccccc23)NC(=O)CNC(=O)[C@H](C)NC(C)=O)[C@@H](C)CC)CSSC[C@@H](C(=O)N[C@@H](Cc2ccc(O)cc2)C(=O)N[C@@H](Cc2c[nH]cn2)C(=O)N[C@@H](Cc2ccccc2)C(=O)NCC(=O)N[C@H](C(=O)NCC(=O)NCC(=O)NCC(=O)N[C@@H](CCCCN)C(N)=O)[C@@H](C)O)NC1=O [P2-D] (Ac-AGWIECYHPDGICYHFGTGGGK-NH2; disulfide 6-13) | – | inhibition at 10 µM: ≥ 50% |
| CC(=O)N[C@@H](C)C(=O)NCC(=O)N[C@@H](Cc1c[nH]c2ccccc12)C(=O)N[C@@H](CC(C)C)C(=O)N[C@@H](CCC(=O)O)C(=O)N[C@H]1CSSC[C@@H](C(=O)N[C@@H](Cc2ccc(O)cc2)C(=O)N[C@@H](CC(N)=O)C(=O)N[C@@H](Cc2ccccc2)C(=O)NCC(=O)N[C@H](C(=O)NCC(=O)NCC(=O)NCC(=O)N[C@@H](CCCCN)C(N)=O)[C@@H](C)O)NC(=O)[C@H](Cc2c[nH]cn2)NC(=O)CNC(=O)[C@H](Cc2ccccc2)NC(=O)[C@H](CCC(=O)O)NC(=O)[C@H](C)NC(=O)[C@H](Cc2ccc(O)cc2)NC1=O [P3-D] (Ac-AGWLECYAEFGHCYNFGTGGGK-NH2; disulfide 6-13) | – | inhibition at 10 µM (10 μM): ≥ 50% |
| CSCC[C@@H]1NC(=O)[C@H]([C@@H](C)O)NC(=O)[C@@H](NC(=O)[C@@H](NC(=O)[C@H](CC(=O)O)NC(=O)[C@@H]2CCCN2C(=O)[C@H](CC(=O)O)NC(=O)CNC(C)=O)[C@@H](C)O)CSSC[C@@H](C(=O)N[C@@H](Cc2ccccc2)C(=O)N2CCC[C@H]2C(=O)N[C@@H](C)C(=O)N[C@@H](CC(=O)O)C(=O)N2CCC[C@H]2C(=O)NCC(=O)NCC(=O)NCC(=O)N[C@@H](CCCCN)C(N)=O)NC(=O)[C@H](Cc2ccc(O)cc2)NC(=O)[C@H](Cc2c[nH]c3ccccc23)NC(=O)[C@H](CCCNC(=N)N)NC(=O)CNC(=O)[C@H](CO)NC(=O)[C@H](CC(=O)O)NC(=O)CNC(=O)[C@H](Cc2c[nH]c3ccccc23)NC1=O [P8-D] (Ac-GDPDTCTMWGDSGRWYCFPADPGGGK-NH2; disulfide 6-17) | – | inhibition at 10 µM: ≥ 50% |
| CC[C@H](C)[C@@H]1NC(=O)[C@H](Cc2c[nH]c3ccccc23)NC(=O)[C@H](CCC(N)=O)NC(=O)CNC(=O)[C@H](CC(N)=O)NC(=O)[C@H](Cc2c[nH]cn2)NC(=O)[C@H](CC(C)C)NC(=O)[C@H](Cc2ccc(O)cc2)NC(=O)[C@@H](NC(=O)[C@H](Cc2c[nH]cn2)NC(=O)[C@H](Cc2c[nH]cn2)NC(=O)[C@H](CC(=O)O)NC(=O)[C@H](CO)NC(=O)CNC(C)=O)CSSC[C@@H](C(=O)N[C@@H](Cc2ccc(O)cc2)C(=O)N2CCC[C@H]2C(=O)N[C@@H](Cc2ccccc2)C(=O)N[C@@H](C)C(=O)N2CCC[C@H]2C(=O)NCC(=O)NCC(=O)NCC(=O)N[C@@H](CCCCN)C(N)=O)NC1=O [P14-D] (Ac-GSDHHCYLHNGQWICYPFAPGGGK-NH2; disulfide 6-15) | did not produce significant inhibition of KDR activation | – |
| CC(=O)NCC(=O)N[C@@H](CC(=O)O)C(=O)N[C@@H](Cc1ccc(O)cc1)C(=O)N1CCC[C@H]1C(=O)N[C@@H](Cc1c[nH]c2ccccc12)C(=O)N[C@H]1CSSC[C@@H](C(=O)N[C@H](C(=O)N2CCC[C@H]2C(=O)N[C@@H](Cc2c[nH]c3ccccc23)C(=O)N[C@@H](CC(=O)O)C(=O)N2CCC[C@H]2C(=O)NCC(=O)NCC(=O)NCC(=O)N[C@@H](CCCCN)C(N)=O)C(C)C)NC(=O)[C@H](Cc2ccccc2)NC(=O)[C@H](CCCNC(=N)N)NC(=O)[C@H]([C@@H](C)O)NC(=O)[C@H](C(C)C)NC(=O)[C@H](CO)NC(=O)[C@H](CC(=O)O)NC(=O)[C@H](CO)NC(=O)[C@H](CC(C)C)NC(=O)[C@H](CCC(=O)O)NC(=O)[C@H](Cc2c[nH]cn2)NC1=O [P15-D] (Ac-GDYPWCHELSDSVTRFCVPWDPGGGK-NH2; disulfide 6-17) | did not produce significant inhibition of KDR activation | – |
| CSCC[C@H](NC(=O)[C@H](Cc1c[nH]cn1)NC(=O)[C@H](CC(=O)O)NC(=O)[C@H](CC(=O)O)NC(=O)CNC(C)=O)C(=O)N[C@H]1CSSC[C@@H](C(=O)N[C@@H](CCSC)C(=O)N[C@@H](Cc2ccc(O)cc2)C(=O)N[C@@H](Cc2c[nH]c3ccccc23)C(=O)N[C@@H](CC(=O)O)C(=O)N2CCC[C@H]2C(=O)NCC(=O)NCC(=O)NCC(=O)N[C@@H](CCCCN)C(N)=O)NC(=O)[C@H](Cc2ccccc2)NC(=O)[C@H](C(C)C)NC(=O)[C@H](Cc2c[nH]cn2)NC(=O)[C@H](CC(=O)O)NC(=O)[C@H](CCC(N)=O)NC(=O)[C@H](Cc2ccc(O)cc2)NC(=O)[C@H](CC(=O)O)NC(=O)[C@@H]2CCCN2C(=O)[C@H](CO)NC(=O)[C@H](CCCNC(=N)N)NC1=O [P16-D] (Ac-GDDHMCRSPDYQDHVFCMYWDPGGGK-NH2; disulfide 6-17) | did not produce significant inhibition of KDR activation | – |
| CC(=O)NCC(=O)N[C@@H](CC(=O)O)C(=O)N1CCC[C@H]1C(=O)N1CCC[C@H]1C(=O)N[C@@H](CC(C)C)C(=O)N[C@H]1CSSC[C@@H](C(=O)N[C@@H](CC(N)=O)C(=O)N2CCC[C@H]2C(=O)N[C@@H](Cc2ccccc2)C(=O)N[C@@H](CC(=O)O)C(=O)N2CCC[C@H]2C(=O)NCC(=O)NCC(=O)NCC(=O)N[C@@H](CCCCN)C(N)=O)NC(=O)[C@H](Cc2c[nH]cn2)NC(=O)[C@H](Cc2c[nH]cn2)NC(=O)[C@H](Cc2c[nH]c3ccccc23)NC(=O)[C@H](CCC(=O)O)NC(=O)[C@H](CCC(N)=O)NC(=O)[C@H]([C@@H](C)O)NC(=O)CNC(=O)[C@H](C(C)C)NC(=O)[C@H](Cc2ccccc2)NC(=O)[C@H](Cc2ccc(O)cc2)NC1=O [P17-D] (Ac-GDPPLCYFVGTQEWHHCNPFDPGGGK-NH2; disulfide 6-17) | did not produce significant inhibition of KDR activation | – |
| CSCC[C@@H]1NC(=O)[C@H](CCC(=O)O)NC(=O)[C@@H](NC(=O)[C@H](Cc2c[nH]c3ccccc23)NC(=O)[C@H](CO)NC(=O)CNC(=O)[C@H](CC(=O)O)NC(=O)CNC(C)=O)CSSC[C@@H](C(=O)N[C@@H](Cc2ccccc2)C(=O)N[C@@H](CO)C(=O)N[C@@H](CC(=O)O)C(=O)N[C@@H](CC(=O)O)C(=O)N2CCC[C@H]2C(=O)NCC(=O)NCC(=O)NCC(=O)N[C@@H](CCCCN)C(N)=O)NC(=O)[C@H](CC(N)=O)NC(=O)[C@H](Cc2c[nH]c3ccccc23)NC(=O)[C@H](CCCCNC(CC(C)C)=C2C(=O)CC(C)(C)CC2=O)NC(=O)CNC(=O)[C@H](C(C)C)NC(=O)[C@H](CC(=O)O)NC(=O)[C@H](CCC(N)=O)NC(=O)[C@H](CCCNC(=N)N)NC1=O [P18-E] (Ac-GDGSWCEMRQDVG[Lys(ivDde)]WNCFSDDPGGGK-NH2; disulfide 6-17) | did not produce significant inhibition of KDR activation | – |
